In patent US11001564B2, “Substituted chromane-8-carboxamide compounds and analogues thereof, and methods using same” (priority 2016, dated 2021):
Structures can show the parent of a compound that is named as a salt. Where two headings read alike, the source gives them in different places.

Tested on: HBV rcDNA in HepDE19 cells
Test: HepDE19 assay with bDNA quantitation of HBV rcDNA
Assay type: cell-based, hepatitis B virus (HBV)
Settings: Hepatitis B virus, HepDE19, 168 h
Summary of the method: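 HepG2-derived HepDE19 cells, switched to Tet-free medium, were exposed 7 days at 37 °C to compound (8-point ½-log series from 25 μM, 0.5% DMSO). HBV rcDNA measured by bDNA assay with HBV-specific probes; EC50/EC90 by 4-parameter fit. CC50 from CellTiter-Glo ATP on replicate plates after 4 days.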

[1] = HepDE19 cells, 7 day incubation, rcDNA by Quantigene 2.0 bDNA assay, read-out: DE-19 bDNA EC50
[2] = read-out: DE-19 bDNA EC50, HepDE19 cells, 7 day incubation, rcDNA by Quantigene 2.0 bDNA assay

Structure (SMILES) | EC50 [1] [µM] | EC50 [2] [µM]
O=C(Nc1ccc(F)c(F)c1)c1cccc2c1OCCC2c1cnccn1 (stereo not shown) [Compound 97, N-(3,4-difluorophenyl)-4-(pyrazin-2-yl)chromane-8-carboxamide] | 16 | –
Cn1nccc1COC(=O)N[C@H]1CCOc2c(C(=O)Nc3ccc(F)c(F)c3)cccc21 [Compound 100, (1-Methyl-1H-pyrazol-5-yl)methyl (S)-(8-((3,4-difluorophenyl)carbamoyl)chroman-4-yl)carbamate] | 2.6 | –
Cn1nccc1CN[C@H]1CCOc2c(C(=O)Nc3ccc(F)c(F)c3)cccc21 [Compound 101] | 21 | –
COc1ccc(COC(=O)N[C@H]2CCOc3c(C(=O)Nc4ccc(F)c(F)c4)cccc32)nc1 [Compound 102, (5-Methoxypyridin-2-yl)methyl (S)-(8-((3,4-difluorophenyl)carbamoyl)chroman-4-yl)carbamate hydrochloride] | – | 2.5
O=C(N[C@H]1CCOc2c(C(=O)Nc3ccc(F)c(F)c3)cccc21)OCc1ccon1 [Compound 103, Isoxazol-3-ylmethyl (S)-(8-((3,4-difluorophenyl)carbamoyl)chroman-4-yl)carbamate] | 2.1 | –
CNC(=O)N[C@H]1CCOc2c(C(=O)Nc3ccc(F)c(Cl)c3)ccc(F)c21 [Compound 104, (S)—N-(3-Chloro-4-fluorophenyl)-5-fluoro-4-(3-methylureido)chromane-8-carboxamide] | – | 0.4
O=C(N[C@H]1CCOc2c(C(=O)Nc3ccc(F)c(Cl)c3)ccc(F)c21)OCc1ccccn1 [Compound 105, Pyridin-2-ylmethyl (S)-(8-((3-chloro-4-fluorophenyl)carbamoyl)-5-fluorochroman-4-yl)carbamate] | 0.37 | –
O=C(N[C@@H]1CCOc2c(C(=O)Nc3ccc(F)c(Cl)c3)ccc(F)c21)OCc1ccccn1 [Compound 106, pyridin-2-ylmethyl (R)-(8-((3-chloro-4-fluorophenyl)carbamoyl)-5-fluorochroman-4-yl)carbamate] | 20 | –
O=C(N[C@H]1CCOc2c(C(=O)Nc3ccc(F)c(F)c3)cccc21)OCC1CCNCC1 [Compound 107, piperidin-4-ylmethyl (S)-(8-((3,4-difluorophenyl)carbamoyl)chroman-4-yl)carbamate] | 21 | –
O=C1CCOc2c1c(F)cc(F)c2C(=O)Nc1ccc(F)c(F)c1 [Compound 110, N-(3,4-difluorophenyl)-5,7-difluoro-4-oxochromane-8-carboxamide] | 1.6 | –
COc1cccc(COC(=O)N[C@H]2CCOc3c(C(=O)Nc4ccc(F)c(F)c4)cccc32)n1 [Compound 111, (6-Methoxypyridin-2-yl)methyl (S)-(8-((3,4-difluorophenyl)carbamoyl)chroman-4-yl)carbamate hydrochloride] | – | 2.7
O=C(N[C@H]1CCOc2c(C(=O)Nc3ccc(F)c(Cl)c3)cccc21)OCc1cnccn1 [Compound 112, Pyrazin-2-ylmethyl (S)-(8-((3-chloro-4-fluorophenyl)carbamoyl)chroman-4-yl)carbamate] | 0.77 | –
Cc1cc(NC(=O)c2ccc(F)c3c2OCC[C@@H]3NC(=O)OCc2ccccn2)ccc1F [Compound 113, Pyridin-2-ylmethyl (S)-(5-fluoro-8-((4-fluoro-3-methylphenyl)carbamoyl)chroman-4-yl)carbamate] | 0.56 | –
Cc1cc(NC(=O)c2ccc(F)c3c2OCC[C@@H]3NC(=O)OCc2cnccn2)ccc1F [Compound 114, Pyrazin-2-ylmethyl (S)-(5-fluoro-8-((4-fluoro-3-methylphenyl)carbamoyl)chroman-4-yl)carbamate] | 0.5 | –
COC(=O)N[C@H]1CCOc2c(C(=O)Nc3ccc(F)c(F)c3)c(F)cc(F)c21 [Compound 115, Methyl (S)-(8-((3,4-difluorophenyl)carbamoyl)-5,7-difluorochroman-4-yl)carbamate] | – | 0.8
CNC(=O)N[C@H]1CCOc2c(C(=O)Nc3ccc(F)c(F)c3)c(F)cc(F)c21 [Compound 116, (S)—N-(3,4-Difluorophenyl)-5,7-difluoro-4-(3-methylureido)chromane-8-carboxamide] | – | 1.8
COC(=O)N[C@H]1CCOc2c(C(=O)Nc3ccc(F)c(C)c3)ccc(F)c21 [Compound 117, Methyl (5-fluoro-8-((4-fluoro-3-methylphenyl)carbamoyl)chroman-4-yl)carbamate] | – | 0.22
O=C1CC[C@@H](COC(=O)N[C@H]2CCOc3c(C(=O)Nc4ccc(F)c(F)c4)cccc32)N1 [Compound 118, ((S)-5-Oxopyrrolidin-2-yl)methyl ((S)-8-((3,4-difluorophenyl)carbamoyl)chroman-4-yl)carbamate] | 3.6 | –
O=C1CC[C@H](COC(=O)N[C@H]2CCOc3c(C(=O)Nc4ccc(F)c(F)c4)cccc32)N1 [Compound 119, ((R)-5-Oxopyrrolidin-2-yl)methyl ((S)-8-((3,4-difluorophenyl)carbamoyl)chroman-4-yl)carbamate] | 8.7 | –

Structure (SMILES) | EC50 [1] [µM] | EC50 [2] [µM]
Cc1cc(NC(=O)c2ccc(F)c3c2OCC[C@@H]3NC(=O)OCc2ncccn2)ccc1F [Compound 120, Pyrimidin-2-ylmethyl (S)-(5-fluoro-8-((4-fluoro-3-methylphenyl)carbamoyl)chroman-4-yl)carbamate] | 0.54 | –
CC(=O)N[C@H]1CCOc2c(C(=O)Nc3ccc(F)c(C)c3)ccc(F)c21 [Compound 121, (4S)-4-Acetamido-5-fluoro-N-(4-fluoro-3-methylphenyl)-3,4-dihydro-2H-1-benzopyran-8-carboxamide] | 0.62 | –
CNC(=O)N[C@H]1CCOc2c(C(=O)Nc3ccc(F)c(C)c3)ccc(F)c21 [Compound 122, (S)-5-fluoro-N-(4-fluoro-3-methylphenyl)-4-(3-methylureido)chromane-8-carboxamide] | – | 0.32
O=C(N[C@H]1CCOc2c(C(=O)Nc3ccc(F)c(F)c3)cccc21)OCc1ncccc1Cl [Compound 123, (3-Chloropyridin-2-yl)methyl (S)-(8-((3,4-difluorophenyl)carbamoyl)chroman-4-yl)carbamate hydrochloride] | – | 8.8
O=C(N[C@H]1CCOc2c(C(=O)Nc3ccc(F)c(F)c3)c(F)cc(F)c21)OCc1ccccn1 [Compound 124, pyridin-2-ylmethyl (S)-(8-((3,4-difluorophenyl)carbamoyl)-5,7-difluorochroman-4-yl)carbamate] | 25 | –
COC(=O)N[C@H]1CCOc2c(C(=O)Nc3ccc(F)c(F)c3)ccc(Cl)c21 [Compound 125, Methyl (S)-(5-chloro-8-((3,4-difluorophenyl)carbamoyl)chroman-4-yl)carbamate] | – | 2.3
CNC(=O)N[C@H]1CCOc2c(C(=O)Nc3ccc(F)c(F)c3)ccc(Cl)c21 [Compound 126, (S)-5-chloro-N-(3,4-difluorophenyl)-4-(3-methylureido)chromane-8-carboxamide] | – | 0.74
CN1CCC(COC(=O)N[C@H]2CCOc3c(C(=O)Nc4ccc(F)c(F)c4)cccc32)C1 (stereo partly drawn) [Compound 127, (1-methylpyrrolidin-3-yl)methyl ((S)-8-((3,4-difluorophenyl)carbamoyl)chroman-4-yl)carbamate] | 24 | –
COC(=O)N[C@H]1CCOc2c(C(=O)Nc3ccc(F)c(OC)c3)ccc(F)c21 [Compound 128, Methyl (S)-(5-fluoro-8-((4-fluoro-3-methoxyphenyl)carbamoyl)chroman-4-yl)carbamate] | 1.2 | –
COCC(=O)N[C@H]1CCOc2c(C(=O)Nc3ccc(F)c(C)c3)ccc(F)c21 [Compound 129, (4S)-5-Fluoro-N-(4-fluoro-3-methylphenyl)-4-(2-methoxyacetamido)-3,4-dihydro-2H-1-benzopyran-8-carboxamide] | 2.5 | –
Cc1cc(NC(=O)c2ccc(F)c3c2OCC[C@@H]3NC(=O)OCc2ccncn2)ccc1F [Compound 130, Pyrimidin-4-ylmethyl (S)-(5-fluoro-8-((4-fluoro-3-methylphenyl)carbamoyl)chroman-4-yl)carbamate] | 0.62 | –
CN(C)C(=O)CC1CCOc2c(C(=O)Nc3ccc(F)c(F)c3)cccc21 (stereo not shown) [Compound 133, N-(3,4-difluorophenyl)-4-(2-(dimethylamino)-2-oxoethyl) chromane-8-carboxamide] | 14 | –
O=C(N[C@H]1CCOc2c(C(=O)Nc3ccc(F)c(F)c3)ccc(Cl)c21)OCc1ccccn1 [Compound 134, Pyridin-2-ylmethyl (S)-(5-chloro-8-((3,4-difluorophenyl)carbamoyl)chroman-4-yl)carbamate] | 1.3 | –
COC(=O)N[C@H]1CCOc2c(C(=O)Nc3ccnc(C)c3)ccc(F)c21 [Compound 135, methyl (S)-(5-fluoro-8-((2-methylpyridin-4-yl)carbamoyl)chroman-4-yl)carbamate] | 9.7 | –
Cc1cc(NC(=O)c2ccc(F)c3c2OCC[C@@H]3NC(=O)OC[C@H]2CCC(=O)N2)ccc1F [Compound 136, ((R)-5-Oxopyrrolidin-2-yl)methyl ((S)-5-fluoro-8-((4-fluoro-3-methylphenyl)carbamoyl)chroman-4-yl)carbamate] | 1.2 | –
Cc1cc(NC(=O)c2ccc(F)c3c2OCC[C@@H]3NC(=O)OC[C@@H]2CCC(=O)N2)ccc1F [Compound 137, ((S)-5-Oxopyrrolidin-2-yl)methyl ((S)-5-fluoro-8-((4-fluoro-3-methylphenyl)carbamoyl)chroman-4-yl)carbamate] | 0.9 | –
Cc1cc(NC(=O)c2ccc(F)c3c2OCC[C@@H]3NC(=O)OCCc2ccccn2)ccc1F [Compound 138, 2-(Pyridin-2-yl)ethyl (S)-(5-fluoro-8-((4-fluoro-3-methylphenyl)carbamoyl)chroman-4-yl)carbamate] | 0.6 | –
Cc1cc(NC(=O)c2ccc(F)c3c2OCC[C@@H]3NC(=O)OC[C@H]2CCCC(=O)N2)ccc1F [Compound 142, ((R)-6-Oxopiperidin-2-yl)methyl ((S)-5-fluoro-8-((4-fluoro-3-methylphenyl)carbamoyl)chroman-4-yl)carbamate] | 0.73 | –
